Assays:
[1] = target: D(3) dopamine receptor (Homo sapiens) (UniProt P35462)
Description: Displacement of [3H]7-OH-DPAT from human Dopamine receptor D3

[2] = target: T1, D(4) dopamine receptor (Homo sapiens) (UniProt P21917)
T1 sequence (whole entry): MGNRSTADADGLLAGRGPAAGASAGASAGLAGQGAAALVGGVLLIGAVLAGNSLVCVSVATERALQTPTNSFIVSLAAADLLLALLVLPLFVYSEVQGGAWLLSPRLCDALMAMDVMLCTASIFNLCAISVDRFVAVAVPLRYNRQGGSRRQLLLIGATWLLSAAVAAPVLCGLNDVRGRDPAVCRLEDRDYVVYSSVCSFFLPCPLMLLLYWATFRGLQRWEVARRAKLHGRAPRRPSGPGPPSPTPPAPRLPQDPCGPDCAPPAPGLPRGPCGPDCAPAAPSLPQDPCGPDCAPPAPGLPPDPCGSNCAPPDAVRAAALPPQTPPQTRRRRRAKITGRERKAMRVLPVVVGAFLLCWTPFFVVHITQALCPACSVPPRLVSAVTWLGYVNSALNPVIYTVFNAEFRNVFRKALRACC
Description: Displacement of [3H]spiperone from human Dopamine receptor D4

[3] = target: D(2) dopamine receptor (Homo sapiens) (UniProt P14416)
D(2) dopamine receptor (Homo sapiens), sequence (P14416 whole entry): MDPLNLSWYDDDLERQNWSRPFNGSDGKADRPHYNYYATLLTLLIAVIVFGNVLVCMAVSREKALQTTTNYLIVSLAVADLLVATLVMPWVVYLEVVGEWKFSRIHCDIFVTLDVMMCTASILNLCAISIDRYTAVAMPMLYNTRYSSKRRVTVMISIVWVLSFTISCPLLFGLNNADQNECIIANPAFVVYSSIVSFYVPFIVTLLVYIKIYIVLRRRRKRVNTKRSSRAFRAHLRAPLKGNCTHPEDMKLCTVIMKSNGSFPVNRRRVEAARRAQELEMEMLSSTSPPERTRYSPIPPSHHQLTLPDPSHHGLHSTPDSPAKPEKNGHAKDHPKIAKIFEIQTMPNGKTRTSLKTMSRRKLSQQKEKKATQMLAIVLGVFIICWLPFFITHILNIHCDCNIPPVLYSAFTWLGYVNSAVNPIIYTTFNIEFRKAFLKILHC
Description: Displacement of [3H]spiperone from human Dopamine receptor D2

D(3) dopamine receptor (Homo sapiens), sequence (P35462 whole entry): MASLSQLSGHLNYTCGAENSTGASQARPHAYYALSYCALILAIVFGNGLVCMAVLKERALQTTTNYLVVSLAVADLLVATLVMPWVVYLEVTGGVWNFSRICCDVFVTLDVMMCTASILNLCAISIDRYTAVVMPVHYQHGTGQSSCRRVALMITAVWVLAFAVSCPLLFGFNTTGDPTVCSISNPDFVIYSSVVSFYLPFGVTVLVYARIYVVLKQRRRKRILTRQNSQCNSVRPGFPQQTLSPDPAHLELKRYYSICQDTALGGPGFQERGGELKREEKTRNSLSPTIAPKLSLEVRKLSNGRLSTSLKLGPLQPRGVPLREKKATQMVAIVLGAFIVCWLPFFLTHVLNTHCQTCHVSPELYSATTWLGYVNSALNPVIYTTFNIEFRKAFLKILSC

Row | SMILES | pKi [1] | pKi [2] | pKi [3]
1 | O=C(CCCN1CCC(CO)(c2ccc(Cl)cc2)CC1)c1ccc(F)cc1 | 6.96 | 7.11 | 7.81
2 | O=C(CCCN1CCC(O)(Cc2ccc(Cl)cc2)CC1)c1ccc(F)cc1 | 8.05 | 7.23 | 8.1
3 | O=C(CCCN1CCC(CO)(c2ccc(Cl)cc2)C1)c1ccc(F)cc1 (stereo not given) | 6.78 | 7.62 | 7.36
4 | O=C(CCCN1CCC(c2ccc(Cl)cc2)CC1)c1ccc(F)cc1 | 7.34 | 7.59 | –
5 | CN(CCCC(=O)c1ccc(F)cc1)CCCC(O)c1ccc(Cl)cc1 (stereo not given) | 6.79 | 6.72 | –
6 | O=C(CCC[n+]1ccc(-c2ccc(Cl)cc2)cc1)c1ccc(F)cc1 | < 6 | < 6 | < 6
7 | O=C(CCCN1CCC(CCO)(c2ccc(Cl)cc2)C1)c1ccc(F)cc1 (stereo not given) | 7.49 | 6.71 | 7.64
8 | O=C(CCCN1CCC(C(O)c2ccc(Cl)cc2)CC1)c1ccc(F)cc1 (stereo not given) | 7.11 | 6.91 | 7.62
9 | O=C(CCCN1CCCC(O)(c2ccc(Cl)cc2)CC1)c1ccc(F)cc1 (stereo not given) | – | – | 8.96
10 | O=C(CCCN1CCC(c2ccc(Cl)cc2)C1)c1ccc(F)cc1 (stereo not given) | – | 7.82 | 7.81

— ChEMBL document CHEMBL1148442, “Design, synthesis, and evaluation of metabolism-based analogues of haloperidol incapable of forming MPP+-like species” (J Med Chem, 2004)
